The text below walks through data of ChEMBL document CHEMBL5465560, “Selectivity Literature for EUbOPEN Chemogenomic Library” (2024).

In assay [1] the target is T1, Mitogen-activated protein kinase kinase kinase 19 (Homo sapiens) (UniProt Q56UN5).
T1 sequence (whole entry): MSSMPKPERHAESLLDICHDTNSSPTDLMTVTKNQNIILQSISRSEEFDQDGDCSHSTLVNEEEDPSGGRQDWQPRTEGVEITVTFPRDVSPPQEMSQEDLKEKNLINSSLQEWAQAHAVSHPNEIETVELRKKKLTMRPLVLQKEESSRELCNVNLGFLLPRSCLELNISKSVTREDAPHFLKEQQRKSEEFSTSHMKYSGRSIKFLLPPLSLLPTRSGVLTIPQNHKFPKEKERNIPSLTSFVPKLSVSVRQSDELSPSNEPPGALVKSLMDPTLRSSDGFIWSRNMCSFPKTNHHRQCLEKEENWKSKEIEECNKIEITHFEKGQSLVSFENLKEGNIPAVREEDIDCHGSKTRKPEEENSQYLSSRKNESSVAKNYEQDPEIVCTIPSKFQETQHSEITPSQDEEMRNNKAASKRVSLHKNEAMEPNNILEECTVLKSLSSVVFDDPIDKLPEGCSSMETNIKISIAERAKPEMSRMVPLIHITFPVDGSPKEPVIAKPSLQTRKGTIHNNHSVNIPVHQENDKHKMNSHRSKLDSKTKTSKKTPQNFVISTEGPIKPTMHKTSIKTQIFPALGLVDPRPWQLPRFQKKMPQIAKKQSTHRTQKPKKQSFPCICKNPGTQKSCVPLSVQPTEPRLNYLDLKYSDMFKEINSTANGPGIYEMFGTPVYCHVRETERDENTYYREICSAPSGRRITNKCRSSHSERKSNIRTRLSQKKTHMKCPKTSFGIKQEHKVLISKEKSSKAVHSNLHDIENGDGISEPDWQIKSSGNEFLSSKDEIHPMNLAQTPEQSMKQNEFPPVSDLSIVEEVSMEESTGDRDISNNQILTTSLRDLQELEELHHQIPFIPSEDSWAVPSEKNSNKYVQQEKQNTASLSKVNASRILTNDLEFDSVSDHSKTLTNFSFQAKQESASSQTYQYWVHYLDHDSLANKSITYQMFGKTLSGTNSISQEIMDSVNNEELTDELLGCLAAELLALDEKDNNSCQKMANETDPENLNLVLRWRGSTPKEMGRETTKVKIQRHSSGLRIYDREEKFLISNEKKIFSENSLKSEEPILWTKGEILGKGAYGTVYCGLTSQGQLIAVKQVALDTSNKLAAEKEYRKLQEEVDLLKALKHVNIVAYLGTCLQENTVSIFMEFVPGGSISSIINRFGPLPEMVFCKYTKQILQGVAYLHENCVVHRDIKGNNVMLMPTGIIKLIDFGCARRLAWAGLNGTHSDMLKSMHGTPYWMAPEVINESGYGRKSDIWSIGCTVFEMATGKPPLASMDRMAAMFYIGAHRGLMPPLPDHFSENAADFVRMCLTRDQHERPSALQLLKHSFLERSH
The assay can be described thus: Selectivity interaction (KinomeScan (DiscoverX)) EUB0000092b MAP3K19. The conditions noted are these: at 10 µM.

Assay [2] concerns the target T2, TGF-beta receptor type-1 (Homo sapiens) (UniProt P36897).
T2 sequence (whole entry): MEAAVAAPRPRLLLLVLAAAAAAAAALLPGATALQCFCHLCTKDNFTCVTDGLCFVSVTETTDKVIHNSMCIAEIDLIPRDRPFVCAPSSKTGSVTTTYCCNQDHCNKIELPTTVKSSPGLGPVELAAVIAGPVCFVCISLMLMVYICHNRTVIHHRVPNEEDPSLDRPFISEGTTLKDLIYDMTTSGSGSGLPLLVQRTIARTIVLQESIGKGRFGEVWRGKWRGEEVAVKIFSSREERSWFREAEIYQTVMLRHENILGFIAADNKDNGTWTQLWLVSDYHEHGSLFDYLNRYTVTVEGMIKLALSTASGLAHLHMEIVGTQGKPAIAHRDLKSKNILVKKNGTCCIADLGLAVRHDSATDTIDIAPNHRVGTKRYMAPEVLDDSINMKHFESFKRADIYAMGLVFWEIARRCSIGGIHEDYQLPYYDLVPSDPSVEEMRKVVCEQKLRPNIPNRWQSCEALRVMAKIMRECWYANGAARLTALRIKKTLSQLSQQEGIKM
Description: Selectivity interaction (KinomeScan (DiscoverX)) EUB0000695a TGFBR1. The conditions noted are these: at 100 nM.

Assay [3] concerns the target Serine/threonine-protein kinase N2 (Homo sapiens, UniProt Q16513). The assay can be described thus: Selectivity interaction (Kinase screening (Upstate/Millipore)) EUB0000604a PKN2.
Assay [4] addresses Calcium/calmodulin-dependent protein kinase type II subunit beta (Homo sapiens) (UniProt Q13554). The assay can be described thus: Selectivity interaction (SelectScreen profiling (Invitrogen)) EUB0000607a CAMK2B. The note with it: at 2 µM.
The target in assay [5] is T3, Serine/threonine-protein kinase D1 (Homo sapiens) (UniProt Q15139).
T3 sequence (whole entry): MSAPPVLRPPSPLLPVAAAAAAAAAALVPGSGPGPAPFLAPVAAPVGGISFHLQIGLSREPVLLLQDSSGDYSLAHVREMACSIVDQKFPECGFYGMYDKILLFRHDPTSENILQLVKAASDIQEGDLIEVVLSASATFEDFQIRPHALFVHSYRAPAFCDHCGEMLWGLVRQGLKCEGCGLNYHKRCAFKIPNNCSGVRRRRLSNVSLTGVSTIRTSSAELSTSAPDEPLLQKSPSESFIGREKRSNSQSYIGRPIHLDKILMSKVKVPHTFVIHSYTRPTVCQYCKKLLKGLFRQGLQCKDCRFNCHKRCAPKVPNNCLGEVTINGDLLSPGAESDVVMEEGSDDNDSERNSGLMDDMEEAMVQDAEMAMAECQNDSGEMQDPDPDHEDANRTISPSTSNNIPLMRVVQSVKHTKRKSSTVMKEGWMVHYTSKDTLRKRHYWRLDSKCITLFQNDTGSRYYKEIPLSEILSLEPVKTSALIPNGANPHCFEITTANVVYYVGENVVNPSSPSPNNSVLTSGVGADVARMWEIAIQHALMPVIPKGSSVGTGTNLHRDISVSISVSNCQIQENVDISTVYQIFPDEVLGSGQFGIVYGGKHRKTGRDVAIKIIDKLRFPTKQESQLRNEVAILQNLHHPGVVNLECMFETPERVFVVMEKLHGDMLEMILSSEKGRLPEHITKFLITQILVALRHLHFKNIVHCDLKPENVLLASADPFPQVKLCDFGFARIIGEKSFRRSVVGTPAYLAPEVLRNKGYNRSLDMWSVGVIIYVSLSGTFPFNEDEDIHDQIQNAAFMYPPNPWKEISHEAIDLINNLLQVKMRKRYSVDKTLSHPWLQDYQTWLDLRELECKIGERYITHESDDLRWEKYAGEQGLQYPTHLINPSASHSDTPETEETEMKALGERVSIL
The assay can be described thus: Selectivity interaction (KinomeScan (DiscoverX)) EUB0000229b PRKD1. The conditions noted are these: at 10 µM.

Sequence of Calcium/calmodulin-dependent protein kinase type II subunit beta (Homo sapiens) (Q13554 whole entry): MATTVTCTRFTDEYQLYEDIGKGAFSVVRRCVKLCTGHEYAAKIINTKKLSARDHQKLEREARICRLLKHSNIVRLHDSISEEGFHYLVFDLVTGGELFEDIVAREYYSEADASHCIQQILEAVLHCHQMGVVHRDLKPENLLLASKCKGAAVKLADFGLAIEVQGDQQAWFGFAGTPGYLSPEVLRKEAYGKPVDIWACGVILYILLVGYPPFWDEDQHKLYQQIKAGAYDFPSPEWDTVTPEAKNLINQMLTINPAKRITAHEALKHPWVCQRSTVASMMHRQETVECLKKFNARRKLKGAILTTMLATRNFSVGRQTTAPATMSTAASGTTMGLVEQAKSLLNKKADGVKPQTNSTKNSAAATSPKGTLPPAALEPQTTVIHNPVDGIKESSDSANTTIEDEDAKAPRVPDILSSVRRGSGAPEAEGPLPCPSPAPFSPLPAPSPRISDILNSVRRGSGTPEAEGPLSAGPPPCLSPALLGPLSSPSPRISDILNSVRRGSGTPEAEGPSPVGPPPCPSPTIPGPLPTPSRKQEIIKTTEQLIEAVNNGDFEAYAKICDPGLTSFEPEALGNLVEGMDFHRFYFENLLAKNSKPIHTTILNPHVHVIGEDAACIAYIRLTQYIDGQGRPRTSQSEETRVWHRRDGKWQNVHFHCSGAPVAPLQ
Sequence of Serine/threonine-protein kinase N2 (Q16513 whole entry, looked up): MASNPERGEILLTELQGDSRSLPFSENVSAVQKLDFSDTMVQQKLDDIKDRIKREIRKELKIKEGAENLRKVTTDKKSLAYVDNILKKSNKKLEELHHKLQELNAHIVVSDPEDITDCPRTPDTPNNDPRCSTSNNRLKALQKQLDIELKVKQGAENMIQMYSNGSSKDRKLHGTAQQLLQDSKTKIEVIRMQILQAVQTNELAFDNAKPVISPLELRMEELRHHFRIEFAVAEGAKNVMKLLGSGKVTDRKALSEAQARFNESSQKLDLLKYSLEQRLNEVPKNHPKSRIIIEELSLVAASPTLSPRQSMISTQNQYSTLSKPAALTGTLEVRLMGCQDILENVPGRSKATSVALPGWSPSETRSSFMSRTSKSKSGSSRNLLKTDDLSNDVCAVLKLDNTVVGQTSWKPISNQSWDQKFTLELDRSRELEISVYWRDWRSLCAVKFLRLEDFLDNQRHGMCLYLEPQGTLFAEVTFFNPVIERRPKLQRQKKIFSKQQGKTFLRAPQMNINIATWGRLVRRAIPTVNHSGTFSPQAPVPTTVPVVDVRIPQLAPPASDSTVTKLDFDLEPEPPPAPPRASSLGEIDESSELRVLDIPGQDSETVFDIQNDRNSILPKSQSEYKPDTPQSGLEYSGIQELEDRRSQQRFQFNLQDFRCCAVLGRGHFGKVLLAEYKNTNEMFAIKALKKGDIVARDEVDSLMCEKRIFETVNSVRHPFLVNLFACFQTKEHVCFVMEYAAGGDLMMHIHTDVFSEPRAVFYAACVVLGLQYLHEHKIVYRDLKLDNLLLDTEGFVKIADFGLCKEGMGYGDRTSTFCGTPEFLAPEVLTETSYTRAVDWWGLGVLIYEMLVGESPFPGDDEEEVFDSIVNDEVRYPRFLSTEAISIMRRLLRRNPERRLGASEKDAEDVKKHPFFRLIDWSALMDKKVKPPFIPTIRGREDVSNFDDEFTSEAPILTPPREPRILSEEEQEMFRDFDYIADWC

Consider `CCC(=O)N1CCN(c2ccc(-n3c(=O)ccc4cnc5ccc(-c6cnc7ccccc7c6)cc5c43)cc2C(F)(F)F)CC1`, for which the % of control in assay [1] is 38%. The molecule `Cc1cc(F)c(C(=O)Nc2cccc(-c3nncn3C(C)C)n2)cc1-n1cnc(C2CC2)c1` registered a % of control in assay [2] of 90%. The molecule `Cc1cnc(Nc2ccc(F)cc2Cl)nc1-c1c[nH]c(C(=O)N[C@H](CO)c2cccc(Cl)c2)c1` returned a % of inhibition in assay [3] of 14%. With `CNC(=O)Nc1ccc(-c2nc(N3CC4CCC(C3)O4)c3cnn(C4CCC5(CC4)OCCO5)c3n2)cc1`, in assay [4], the % of inhibition is 8%. On to `COc1cc(N(C)c2ccnc3ccc(C(F)(F)F)cc23)cc(OC)c1OC`, for which the % binding in assay [5] stood at 100%.
